The values that follow are results of earlier work, collected in patent US11807855B2, “Selection vectors and methods of selecting eukaryotic host cells” (Novartis AG, priority 2013, dated 2023).

As usually defined, the IC50 is the concentration that inhibits the measured activity by half. In general, Ki refers to a dissociation constant, usually derived from enzyme kinetics or from competition with a known ligand. For orientation: Kd means the concentration at which binding is half-saturated. The Km is the concentration of substrate that gives half-maximal velocity.

For data set [1], the target named is wild type folate receptor alpha (Homo sapiens, UniProt P15328).
The target of data set [2] is A49L mutated folate receptor alpha (Homo sapiens, UniProt P15328, A74L). The following applies: A49L mutant.
The target in another data set is T1, RFC (Homo sapiens, UniProt P41440).
T1 sequence (P41440 1-591): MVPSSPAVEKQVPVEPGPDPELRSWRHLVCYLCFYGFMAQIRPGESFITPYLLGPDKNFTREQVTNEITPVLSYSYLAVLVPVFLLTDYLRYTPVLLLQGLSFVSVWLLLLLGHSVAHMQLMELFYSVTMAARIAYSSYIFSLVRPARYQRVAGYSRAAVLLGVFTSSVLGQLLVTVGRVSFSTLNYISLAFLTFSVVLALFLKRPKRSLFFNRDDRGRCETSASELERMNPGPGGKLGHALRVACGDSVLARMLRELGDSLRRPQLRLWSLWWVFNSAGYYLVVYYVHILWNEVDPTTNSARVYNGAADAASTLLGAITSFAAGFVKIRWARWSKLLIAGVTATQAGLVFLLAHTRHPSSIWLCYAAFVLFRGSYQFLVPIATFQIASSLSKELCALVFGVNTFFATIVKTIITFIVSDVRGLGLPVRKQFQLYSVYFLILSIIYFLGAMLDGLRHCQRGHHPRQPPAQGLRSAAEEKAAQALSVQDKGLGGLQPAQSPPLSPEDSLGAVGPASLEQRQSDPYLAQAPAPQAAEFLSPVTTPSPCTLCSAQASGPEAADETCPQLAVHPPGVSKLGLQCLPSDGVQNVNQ

Sequence of wild type folate receptor alpha (P15328 25-234): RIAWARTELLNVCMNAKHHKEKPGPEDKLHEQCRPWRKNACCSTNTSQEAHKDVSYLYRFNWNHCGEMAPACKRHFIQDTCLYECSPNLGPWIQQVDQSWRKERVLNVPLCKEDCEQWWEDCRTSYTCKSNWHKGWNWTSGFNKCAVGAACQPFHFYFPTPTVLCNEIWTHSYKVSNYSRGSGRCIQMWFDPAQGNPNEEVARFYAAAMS
Sequence of A49L mutated folate receptor alpha (P15328 25-234 A74L): as the sequence (P15328 25-234) above, with A50L counted along it

As to `CN1c2c(nc(N)[nH]c2=O)NCC1CNc1ccc(C(=O)N[C@@H](CCC(=O)O)C(=O)O)cc1` (single isomer, unassigned) [6S diastereoisomer of 5-methyltetrahydrofolate, 5-methyltetrahydrofolate], the IC50 was 2.9 nM in data set [1] and 179 nM in data set [2].

For `Nc1nc2c(c(=O)[nH]1)CC(CCc1ccc(C(=O)N[C@@H](CCC(=O)O)C(=O)O)cc1)CN2` (stereo partly shown) [5,10-dideazatetrahydrofolic acid], the Ki on FR alpha and FR beta (using [3H]folic acid as a substrate) is 0.4 to 1.3 nM.

As for `C#CCN(c1ccc(C(=O)N[C@@H](CCC(=O)N[C@H](CCC(=O)O)C(=O)O)C(=O)O)cc1)[C@H]1CCc2cc3nc(CO)[nH]c(=O)c3cc21` [BGC945], the Kd at FR alpha and FR beta is 1 nM.

For the compound `CN(Cc1cnc2nc(N)nc(N)c2n1)c1ccc(C(=O)N[C@@H](CCC(=O)O)C(=O)O)cc1` [MTX, methotrexate], the Kd at FR alpha and FR beta was greater than 100 nM.

As to `Nc1nc2ncc(CNc3ccc(C(=O)N[C@@H](CCC(=O)O)C(=O)O)cc3)nc2c(=O)[nH]1` [folic acid], at RFC, the Km was 200 to 400 µM. Also, at FR alpha and FR beta, the Kd is 0.1 to 1 nM.
